Legend:
[1] = Volume of distribution at steady state in Sprague-Dawley rat at 1 mg/kg, iv administered as bolus dose by HPLC-MS/MS analysis; format: ADME, organism-based; details: in vivo, read-out: Vdss
[2] = biological target: Coagulation factor XI (Homo sapiens, UniProt P03951); experiment: Inhibition of human F11a using D-Leu-Pro-Arg*Rh110-D-Pro as substrate preincubated for 60 mins followed by substrate addition and measured after 60 mins by fluorescence assay
[3] = biological target: Prothrombin (Homo sapiens, UniProt P00734); format: single protein
[4] = biological target: Bile salt export pump (Homo sapiens, UniProt O95342); experiment: Inhibition of BSEP (unknown origin)
Chain of Bile salt export pump (O95342 whole entry): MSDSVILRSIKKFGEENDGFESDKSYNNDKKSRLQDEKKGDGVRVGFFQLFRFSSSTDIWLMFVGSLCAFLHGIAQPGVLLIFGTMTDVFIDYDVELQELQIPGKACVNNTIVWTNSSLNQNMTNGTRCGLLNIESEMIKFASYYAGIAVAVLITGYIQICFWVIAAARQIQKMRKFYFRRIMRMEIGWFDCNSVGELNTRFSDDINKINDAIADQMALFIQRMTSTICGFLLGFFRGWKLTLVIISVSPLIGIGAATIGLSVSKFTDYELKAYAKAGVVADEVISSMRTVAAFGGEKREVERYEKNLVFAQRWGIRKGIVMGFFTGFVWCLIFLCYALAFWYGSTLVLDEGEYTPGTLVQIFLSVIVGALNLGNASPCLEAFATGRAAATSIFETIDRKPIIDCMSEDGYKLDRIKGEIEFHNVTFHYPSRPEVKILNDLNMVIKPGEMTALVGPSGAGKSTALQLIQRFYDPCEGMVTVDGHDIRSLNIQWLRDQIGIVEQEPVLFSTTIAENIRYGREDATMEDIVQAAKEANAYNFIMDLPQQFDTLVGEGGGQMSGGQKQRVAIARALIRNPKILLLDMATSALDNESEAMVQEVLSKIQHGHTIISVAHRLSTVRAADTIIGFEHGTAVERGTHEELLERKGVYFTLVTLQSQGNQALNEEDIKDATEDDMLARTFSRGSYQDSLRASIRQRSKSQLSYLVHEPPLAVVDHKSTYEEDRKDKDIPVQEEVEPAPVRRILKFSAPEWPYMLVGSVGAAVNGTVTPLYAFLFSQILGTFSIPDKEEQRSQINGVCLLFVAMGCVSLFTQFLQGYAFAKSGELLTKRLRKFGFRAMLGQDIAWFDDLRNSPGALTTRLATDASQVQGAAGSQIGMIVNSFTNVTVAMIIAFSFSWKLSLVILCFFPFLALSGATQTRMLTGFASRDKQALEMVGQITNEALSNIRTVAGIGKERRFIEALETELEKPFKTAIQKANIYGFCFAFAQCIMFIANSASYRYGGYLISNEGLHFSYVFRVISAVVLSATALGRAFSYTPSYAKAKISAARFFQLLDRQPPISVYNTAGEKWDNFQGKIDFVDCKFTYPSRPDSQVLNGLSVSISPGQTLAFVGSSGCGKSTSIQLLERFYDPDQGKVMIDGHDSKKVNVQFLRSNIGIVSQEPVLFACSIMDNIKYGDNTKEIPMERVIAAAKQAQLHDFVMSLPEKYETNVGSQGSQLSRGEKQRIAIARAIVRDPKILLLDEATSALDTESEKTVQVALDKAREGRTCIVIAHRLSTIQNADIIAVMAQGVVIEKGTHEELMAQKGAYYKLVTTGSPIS

[5] = biological target: Tissue-type plasminogen activator (Homo sapiens, UniProt P00750); format: single protein
Chain of Tissue-type plasminogen activator (P00750 whole entry): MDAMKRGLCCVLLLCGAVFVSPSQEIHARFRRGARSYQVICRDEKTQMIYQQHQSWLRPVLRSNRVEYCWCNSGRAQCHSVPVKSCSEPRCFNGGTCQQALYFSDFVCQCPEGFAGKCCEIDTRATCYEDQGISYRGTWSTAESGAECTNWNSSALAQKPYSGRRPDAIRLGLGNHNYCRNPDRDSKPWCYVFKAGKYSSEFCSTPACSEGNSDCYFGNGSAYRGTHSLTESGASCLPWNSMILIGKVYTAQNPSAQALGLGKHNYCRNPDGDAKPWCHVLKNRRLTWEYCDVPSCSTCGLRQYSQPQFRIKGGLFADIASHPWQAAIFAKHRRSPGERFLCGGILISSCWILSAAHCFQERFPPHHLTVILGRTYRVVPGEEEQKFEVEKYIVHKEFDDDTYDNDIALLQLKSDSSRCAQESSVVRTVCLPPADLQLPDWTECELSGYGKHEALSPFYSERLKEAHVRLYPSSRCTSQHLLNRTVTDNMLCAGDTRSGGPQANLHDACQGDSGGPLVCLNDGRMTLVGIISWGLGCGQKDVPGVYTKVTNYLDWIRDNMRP

[6] = Oral bioavailability in Sprague-Dawley rat at 30 mg/kg via gavage by HPLC-MS/MS analysis; format: ADME, organism-based; details: in vivo
[7] = Efflux ratio of apparent permeability from basolateral to apical side over apical to basolateral side in MDCK-MDR1 cells; format: ADME, cell-based, Canis lupus familiaris; details: dog
[8] = biological target: T1, Peroxisome proliferator-activated receptor gamma (Homo sapiens) (UniProt P37231); experiment: Binding affinity to PPARgamma (unknown origin) at 10 uM
T1 sequence (whole entry): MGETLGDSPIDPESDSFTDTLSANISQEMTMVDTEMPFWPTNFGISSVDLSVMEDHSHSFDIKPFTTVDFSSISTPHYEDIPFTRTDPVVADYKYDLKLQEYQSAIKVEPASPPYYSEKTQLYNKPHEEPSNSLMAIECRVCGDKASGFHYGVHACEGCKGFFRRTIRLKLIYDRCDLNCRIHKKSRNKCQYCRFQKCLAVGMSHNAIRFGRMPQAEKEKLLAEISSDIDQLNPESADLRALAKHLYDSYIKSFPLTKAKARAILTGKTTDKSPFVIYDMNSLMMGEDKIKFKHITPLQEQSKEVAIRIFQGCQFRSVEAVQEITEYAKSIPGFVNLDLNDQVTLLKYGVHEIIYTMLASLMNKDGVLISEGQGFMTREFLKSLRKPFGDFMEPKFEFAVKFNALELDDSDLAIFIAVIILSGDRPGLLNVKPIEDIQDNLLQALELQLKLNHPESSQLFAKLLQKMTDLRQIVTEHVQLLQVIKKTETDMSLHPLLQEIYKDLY

[9] = Dose normalized Cmax in beagle dog at 75 mg/kg, po via gavage by HPLC-MS/MS analysis; format: ADME, organism-based, Canis lupus familiaris; details: in vivo
[10] = biological target: 3',5'-cyclic-AMP phosphodiesterase 4D (Homo sapiens, UniProt Q08499); experiment: Inhibition of PDE4D (unknown origin)
Chain of 3',5'-cyclic-AMP phosphodiesterase 4D (Q08499 whole entry): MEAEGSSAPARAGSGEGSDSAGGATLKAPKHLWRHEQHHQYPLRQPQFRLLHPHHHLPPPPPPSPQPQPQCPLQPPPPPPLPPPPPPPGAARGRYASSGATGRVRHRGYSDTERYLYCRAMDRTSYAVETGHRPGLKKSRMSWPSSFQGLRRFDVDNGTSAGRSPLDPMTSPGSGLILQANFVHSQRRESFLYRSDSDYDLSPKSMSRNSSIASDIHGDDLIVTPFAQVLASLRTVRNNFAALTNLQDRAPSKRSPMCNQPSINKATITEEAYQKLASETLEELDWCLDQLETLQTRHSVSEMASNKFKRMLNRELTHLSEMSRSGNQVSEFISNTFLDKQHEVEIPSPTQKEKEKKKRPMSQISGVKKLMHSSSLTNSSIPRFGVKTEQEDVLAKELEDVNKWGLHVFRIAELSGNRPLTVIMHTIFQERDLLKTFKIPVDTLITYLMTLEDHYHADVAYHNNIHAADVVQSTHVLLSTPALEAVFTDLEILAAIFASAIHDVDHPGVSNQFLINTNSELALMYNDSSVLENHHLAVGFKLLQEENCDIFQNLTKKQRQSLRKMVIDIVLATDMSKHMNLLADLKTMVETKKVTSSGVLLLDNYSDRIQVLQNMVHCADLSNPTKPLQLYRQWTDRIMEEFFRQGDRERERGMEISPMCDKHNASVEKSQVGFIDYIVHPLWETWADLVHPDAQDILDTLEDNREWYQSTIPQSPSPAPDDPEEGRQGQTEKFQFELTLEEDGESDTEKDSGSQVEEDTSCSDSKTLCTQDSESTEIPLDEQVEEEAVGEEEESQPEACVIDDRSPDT

[11] = Dose normalized Cmax in Sprague-Dawley rat at 3 mg/kg, po via gavage by HPLC-MS/MS analysis; format: ADME, organism-based; details: in vivo
[12] = Dose normalized Cmax in C57BL/6 mouse at 100 mg/kg, po by LC-MS/MS analysis; format: ADME, organism-based; details: in vivo
[13] = Oral bioavailability in beagle dog at 10 mg/kg via gavage by HPLC-MS/MS analysis; format: ADME, organism-based, Canis lupus familiaris; details: in vivo
[14] = Volume of distribution at steady state in C57BL/6 mouse at 0.4 mg/kg, iv bolus injection or 3 mg/kg, po by LC-MS/MS analysis; format: ADME, organism-based; details: in vivo, read-out: Vdss

Chain of Coagulation factor XI (P03951 19-387 limits assumed): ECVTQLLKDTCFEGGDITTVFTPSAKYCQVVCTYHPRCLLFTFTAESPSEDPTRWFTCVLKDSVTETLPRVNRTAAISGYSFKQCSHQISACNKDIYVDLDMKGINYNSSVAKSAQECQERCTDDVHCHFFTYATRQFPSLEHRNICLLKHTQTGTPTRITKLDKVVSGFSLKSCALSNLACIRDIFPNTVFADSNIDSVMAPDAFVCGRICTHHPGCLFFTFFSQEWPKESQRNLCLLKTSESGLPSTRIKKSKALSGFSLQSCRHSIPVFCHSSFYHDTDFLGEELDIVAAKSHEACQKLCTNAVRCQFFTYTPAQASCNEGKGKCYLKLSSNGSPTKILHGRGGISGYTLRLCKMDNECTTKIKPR
Chain of Coagulation factor XI (P03951 388-625 limits assumed): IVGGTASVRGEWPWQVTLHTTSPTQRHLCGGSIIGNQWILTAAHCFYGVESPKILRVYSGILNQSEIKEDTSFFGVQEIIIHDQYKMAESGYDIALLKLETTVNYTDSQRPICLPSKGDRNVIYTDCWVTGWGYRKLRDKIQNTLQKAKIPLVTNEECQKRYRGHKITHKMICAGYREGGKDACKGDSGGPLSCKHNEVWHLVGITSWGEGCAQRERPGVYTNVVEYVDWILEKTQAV

In the case of CC(C)c1cc(-c2ccc3c(c2)[C@H](N)CO3)cc([C@H](O)Cn2ccc3cccc(C(=O)O)c32)c1, the Vd [1] is reported as 1.3 L/kg, the IC50 [2] is reported as 0.0004 µM and the IC50 [3] is reported as 2.57 µM. For the same compound, the IC50 [4] was 28 µM, the IC50 [5] was 0.25 µM and the bioavailability [6] was 19%. It also gave an efflux ratio [7] of 21.5, an Activity [8] of 65% and a Cmax/dose [9] of 504 nM. For the same compound, the IC50 [10] was 2.4 µM, the Cmax/dose [11] was 77 nM and the Cmax/dose [12] was 26795 nM. For the same compound, the bioavailability [13] was 5% and the Vd [14] was 0.57 L/kg.

— ChEMBL document CHEMBL4619774 (J Med Chem, 2020)
